Assay type in all cases: biochemical
One test addresses T1, FGFR1 kinase (Homo sapiens, UniProt P11362).
T1 construct: purchased Carna 08-133
Description: IC50 evaluation assay of FGFR1 kinase inhibition (Caliper). To be noted: 28° C.; average of two tests; read-out: IC50 (nM) inhibiting FGFR 1 kinase. As to the method:
(§1) 1. The compound was dissolved in 100% DMSO, diluted into solutions with appropriate concentration gradients with water according to experimental requirement, and added to a 96-well plate.
2. FGFR1 kinase (Carna, Cat. No. 08-133, Lot. No. 09CBS-0989) and FGFR2 kinase (Carna, Cat. No. 08-134, Lot. No. 07CBS-2468), JAK3 kinase (Carna, Cat. No. 08-135, Lot. No. 06CBS-3177) were diluted to the optimum concentration with the following buffer solution: 50 mM HEPES, pH 7.5, 0.0015% Brij-35, 2 mM DTT. Transfer to the 96-well plate and incubate with the compound at 28° C. for a period of time.
(§2) 3. The buffer solution (100 mM HEPES, pH 7.5, 0.0015% Brij-35, 0.2% Coating Reagent and […]) was added to terminate the reaction.
(§3) 4. The conversion rate was read with Caliper Reader. The inhibition rate was calculated as the average of two tests.

Another test addresses T2, FLT3 kinase (FLT3-WT) (Homo sapiens, UniProt P36888).
T2 construct: purchased Carna 08-154
T2 sequence (P36888 27-993): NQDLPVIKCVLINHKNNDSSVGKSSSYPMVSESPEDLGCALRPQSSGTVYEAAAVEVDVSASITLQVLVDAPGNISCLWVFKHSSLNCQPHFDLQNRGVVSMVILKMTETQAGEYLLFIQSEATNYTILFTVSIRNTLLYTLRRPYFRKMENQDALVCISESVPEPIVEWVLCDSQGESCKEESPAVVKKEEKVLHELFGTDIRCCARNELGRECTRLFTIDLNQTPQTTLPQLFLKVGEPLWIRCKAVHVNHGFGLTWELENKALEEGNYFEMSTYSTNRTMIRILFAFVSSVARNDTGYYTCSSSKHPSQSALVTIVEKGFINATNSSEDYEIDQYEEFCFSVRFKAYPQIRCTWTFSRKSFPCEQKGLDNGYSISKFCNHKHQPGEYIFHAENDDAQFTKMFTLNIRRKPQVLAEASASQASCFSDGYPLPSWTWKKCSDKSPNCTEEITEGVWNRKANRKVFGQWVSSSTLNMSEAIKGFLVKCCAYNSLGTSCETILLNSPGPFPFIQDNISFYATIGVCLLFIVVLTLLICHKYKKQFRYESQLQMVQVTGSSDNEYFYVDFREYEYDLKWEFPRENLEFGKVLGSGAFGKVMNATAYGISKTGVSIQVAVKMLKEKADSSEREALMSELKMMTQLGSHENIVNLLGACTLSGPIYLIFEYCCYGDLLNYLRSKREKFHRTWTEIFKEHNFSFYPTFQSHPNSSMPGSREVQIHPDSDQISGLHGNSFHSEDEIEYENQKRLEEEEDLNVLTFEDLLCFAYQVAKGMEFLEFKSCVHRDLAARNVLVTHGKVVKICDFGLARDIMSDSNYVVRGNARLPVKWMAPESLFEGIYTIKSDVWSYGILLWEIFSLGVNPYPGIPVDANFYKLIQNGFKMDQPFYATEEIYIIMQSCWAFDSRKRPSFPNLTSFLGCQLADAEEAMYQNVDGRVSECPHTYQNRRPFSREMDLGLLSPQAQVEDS
Description: IC50 evaluation assay of FLT3 kinase inhibition (Caliper). As to conditions: 28° C.; average of two tests; read-out: IC50 (nM) inhibiting FLT3-WT kinase. As to the method: as §1
2. FLT3 kinase (Carna, Cat. No. 08-154, Lot. No. 07CBS-2350), FLT3-ITD kinase (Invitrogen, Cat. No. PV6191, Lot. No. 1753453) and FLT3-D835Y kinase (Invitrogen, Cat. No. PR7450A, Lot. No. 1629729C) were diluted to the optimum concentration with the following buffer solution: 50 mM HEPES, pH 7.5, 0.0015% Brij-35, 10 mM MgCl2, 2 mM DTT. Transfer to the 96-well plate and incubate with the compound at 28° C. for a period of time.
as §2, §3

The target of another test is T3, FYN kinase (Homo sapiens, UniProt P06241).
T3 construct: purchased Carna 08-068
T3 sequence (P06241 whole entry): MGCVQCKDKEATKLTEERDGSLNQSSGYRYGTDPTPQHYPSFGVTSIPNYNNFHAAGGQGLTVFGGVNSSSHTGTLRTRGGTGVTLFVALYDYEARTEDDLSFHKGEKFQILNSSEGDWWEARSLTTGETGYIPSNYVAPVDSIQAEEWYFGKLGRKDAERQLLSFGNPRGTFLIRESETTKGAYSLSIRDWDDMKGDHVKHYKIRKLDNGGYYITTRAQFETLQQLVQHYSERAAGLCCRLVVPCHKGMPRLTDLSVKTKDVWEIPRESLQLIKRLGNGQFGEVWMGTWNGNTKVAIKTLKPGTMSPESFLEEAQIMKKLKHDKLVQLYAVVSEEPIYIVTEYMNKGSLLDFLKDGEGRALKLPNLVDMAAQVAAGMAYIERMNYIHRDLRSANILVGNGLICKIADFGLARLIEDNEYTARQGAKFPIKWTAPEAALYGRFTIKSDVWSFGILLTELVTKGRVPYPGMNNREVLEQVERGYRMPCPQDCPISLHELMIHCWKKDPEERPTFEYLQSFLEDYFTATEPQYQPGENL
Kind of test: IC50 evaluation assay of Src family kinase inhibition: FYN. To be noted: 28° C.; average of two tests; read-out: IC50 (nM) inhibiting Src family kinase FYN. The method, then: as §1
(§4) 2. c-Src kinase (Carna, Cat. No. 08-173, Lot. No. 05CBS-1367), LYNαkinase (Carna, Cat. No. 08-171, Lot. No. 06CBS-3296D), FYN kinase (Carna, Cat. No. 08-068, Lot. No. 05CBS-1032), LCK kinase (Carna, Cat. No. 08-170, Lot. No. 07CBS-2482), HCK kinase (BPS, Cat. No. 40440, Lot. No. 1001), FGR kinase (Carna, Cat. No. 08-166, Lot. No. 05CBS-2781), YES kinase (Carna, Cat. No. 08-175, Lot. No. 06CBS-3247) were diluted to the optimum concentration with the following buffer solution: 50 mM HEPES, pH 7.5, 0.0015% Brij-35, 10 mM MgCl2, 2 mM DTT. Transfer to the 96-well plate and incubate with the compound at 28° C. for a period of time.
as §2, §3

In the next test the target is T4, LCK kinase (Homo sapiens, UniProt P06239).
T4 construct: purchased Carna 08-170
T4 sequence (P06239 whole entry): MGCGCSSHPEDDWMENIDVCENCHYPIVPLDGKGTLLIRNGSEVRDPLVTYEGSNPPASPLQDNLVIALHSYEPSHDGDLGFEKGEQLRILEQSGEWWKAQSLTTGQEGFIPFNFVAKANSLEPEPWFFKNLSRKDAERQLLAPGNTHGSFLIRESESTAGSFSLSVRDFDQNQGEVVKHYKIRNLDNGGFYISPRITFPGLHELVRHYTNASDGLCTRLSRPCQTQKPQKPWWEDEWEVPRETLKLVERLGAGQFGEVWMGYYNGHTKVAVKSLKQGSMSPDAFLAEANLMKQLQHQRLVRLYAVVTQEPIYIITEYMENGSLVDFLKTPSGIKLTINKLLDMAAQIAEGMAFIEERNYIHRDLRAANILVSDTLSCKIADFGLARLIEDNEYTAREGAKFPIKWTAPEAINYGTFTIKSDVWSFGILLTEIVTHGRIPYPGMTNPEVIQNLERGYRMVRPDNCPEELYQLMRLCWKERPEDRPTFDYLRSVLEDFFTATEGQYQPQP
Description: IC50 evaluation assay of Src family kinase inhibition: LCK. To be noted: 28° C.; average of two tests; read-out: IC50 (nM) inhibiting Src family kinase LCK. As to the method: as §1, §4, §2, §3

A further test concerns the target T5, FGR kinase (Homo sapiens, UniProt P09769).
T5 construct: purchased Carna 08-166
Kind of test: IC50 evaluation assay of Src family kinase inhibition: FGR. As to conditions: 28° C.; average of two tests; read-out: IC50 (nM) inhibiting Src family kinase FGR. The method, then: as §1, §4, §2, §3

Each structure is given as a SMILES string.

T5 sequence (P09769 whole entry): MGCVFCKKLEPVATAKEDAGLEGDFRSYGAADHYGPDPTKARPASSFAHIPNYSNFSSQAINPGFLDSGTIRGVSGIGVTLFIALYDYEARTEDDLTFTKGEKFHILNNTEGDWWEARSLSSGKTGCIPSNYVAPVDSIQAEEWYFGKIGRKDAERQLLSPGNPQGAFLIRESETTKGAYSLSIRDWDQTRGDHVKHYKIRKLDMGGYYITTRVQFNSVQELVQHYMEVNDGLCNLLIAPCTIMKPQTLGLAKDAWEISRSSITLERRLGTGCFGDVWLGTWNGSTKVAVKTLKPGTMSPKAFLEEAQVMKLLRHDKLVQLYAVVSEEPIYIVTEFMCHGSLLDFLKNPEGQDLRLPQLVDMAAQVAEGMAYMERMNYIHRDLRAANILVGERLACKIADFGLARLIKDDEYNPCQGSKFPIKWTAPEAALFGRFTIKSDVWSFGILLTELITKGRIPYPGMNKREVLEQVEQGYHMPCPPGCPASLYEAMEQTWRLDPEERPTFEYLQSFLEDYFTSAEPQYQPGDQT
T1 sequence (P11362 22-822): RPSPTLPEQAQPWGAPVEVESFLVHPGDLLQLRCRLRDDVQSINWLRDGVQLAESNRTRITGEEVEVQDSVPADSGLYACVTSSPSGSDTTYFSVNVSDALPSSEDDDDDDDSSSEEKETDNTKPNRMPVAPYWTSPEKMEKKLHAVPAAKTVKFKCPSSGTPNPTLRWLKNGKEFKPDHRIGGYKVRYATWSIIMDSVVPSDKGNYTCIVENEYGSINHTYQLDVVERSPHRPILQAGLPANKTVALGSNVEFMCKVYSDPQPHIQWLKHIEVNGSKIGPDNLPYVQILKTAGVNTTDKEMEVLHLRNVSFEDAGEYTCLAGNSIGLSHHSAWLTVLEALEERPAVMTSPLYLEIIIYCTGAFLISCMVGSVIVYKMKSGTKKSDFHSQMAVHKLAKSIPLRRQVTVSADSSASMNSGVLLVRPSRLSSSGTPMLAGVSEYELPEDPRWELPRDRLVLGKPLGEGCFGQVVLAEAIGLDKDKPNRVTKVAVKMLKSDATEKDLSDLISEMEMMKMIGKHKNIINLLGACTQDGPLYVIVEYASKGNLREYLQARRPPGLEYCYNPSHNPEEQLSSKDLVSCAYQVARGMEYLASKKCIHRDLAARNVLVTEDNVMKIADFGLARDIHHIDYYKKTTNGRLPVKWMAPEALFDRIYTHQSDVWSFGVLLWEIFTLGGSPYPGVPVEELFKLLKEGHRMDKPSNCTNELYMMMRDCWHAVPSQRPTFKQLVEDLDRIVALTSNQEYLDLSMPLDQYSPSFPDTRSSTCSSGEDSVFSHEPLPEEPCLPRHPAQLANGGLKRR

Regarding `COc1cc(F)ccc1-c1c(C)sc2cnc(Nc3cnn(C4CCNCC4)c3)nc12` [Compound 31, N-[7-(4-fluoro-2-methoxyphenyl)-6-methylthieno[3,2-d]pyrimidinyl-2-yl]-1-(piperidinyl-4-yl)-1H-pyrazol-4-amine], the IC50 at FGFR1 kinase amounted to 5.1 nM; at FLT3 kinase (FLT3-WT), 0.28 nM; at FYN kinase, 3.7 nM; at LCK kinase, 5.5 nM; on FGR kinase it was 14 nM.

As for `COc1cc(F)ccc1-c1c(C)sc2cnc(Nc3cnn(C4CCN(CCO)CC4)c3)nc12` [Compound 34, 2-[4-(4-{[7-(4-fluoro-2-methoxyphenyl)-6-methylthieno[3,2-d]pyrimidinyl-2-yl]amino}-1H-pyrazol-1-yl)-piperidinyl-1-yl]-1-ethanol], the IC50 at FGFR1 kinase is 3.8 nM; at FLT3 kinase (FLT3-WT), less than 5 nM; at FYN kinase, less than 5 nM; on LCK kinase it was less than 5 nM; at FGR kinase it was 11 nM.

What is called IC50 is the point on the concentration scale where inhibition reaches its midpoint.

The values above are taken from patent publication US10494378B2, “Fused ring pyrimidine compound, intermediate, and preparation method, composition and use thereof” (GUANGZHOU MAXINOVEL PHARMACEUTICALS CO., LTD., priority 2015, dated 2019).
